In article PMC6736568, “Discovery of Novel Anti-cryptosporidial Activities From Natural Products by in vitro High-Throughput Phenotypic Screening” (Frontiers in Microbiology, 2019):
Like-named read-outs stand apart in the source and are kept apart here.

How the values were obtained:
in vitro = details: for cytotoxicity at 41 h, 10 µM: human
Cryptosporidium parvum = experiment: qRT-PCR assay of the growth of C. parvum in vitro in HCT-8 host cells (primary and secondary screening, EC50); type: cell-based; details: Cryptosporidium parvum, HCT-8; for inhibition at 10 µM: primary screening at 10 uM, read-out: Inhibition (%); for inhibition at 3.3 µM: secondary screening at 3.3 uM, read-out: % Inhibition (3.3 uM)
[1] = primary screening at 10 uM, treated vs control

| Structure (SMILES) | cytotoxicity at 41 h, 10 µM (in vitro) | Hs18S ΔCT (HCT-8 host cells (Hs18S); human, 41 h, 10 μM) | inhibition at 10 µM (Cryptosporidium parvum) | cytotoxicity at 10 µM (in vitro) | Hs18S ΔCT (HCT-8 host cells (Hs18S); [1]) | inhibition at 3.3 µM (Cryptosporidium parvum) |
| --- | --- | --- | --- | --- | --- | --- |
| O=c1oc2c(O)c(O)cc3c(=O)oc4c(O)c(O)cc1c4c23 [ELLAGIC ACID] | -3.6% | -0.05 | -14.6% | – | – | – |
| O=c1ccc2cc(O)c(O)cc2o1 [ESCULETIN] | – | – | -23.8% | 13.5% | 0.21 | – |
| COc1ccc2c(c1OC)OC[C@@H](c1ccc(OC)c(OC)c1OC)C2 [DUARTIN, DIMETHYL ETHER] | -16.4% | -0.22 | -13.5% | – | – | – |
| NCCC(=O)N[C@@H](Cc1cnc[nH]1)C(=O)O [CARNOSINE] | 5.5% | 0.08 | 41.1% | – | – | – |
| O=c1c(-c2cc(O)c(O)c(O)c2)coc2cc(O)c(O)c(O)c12 [IRIGENOL] | 0.7% | 0.01 | -13.4% | – | – | – |
| COc1c(O)cc2c(c1O)[C@@H]1O[C@H](CO)[C@@H](O)[C@H](O)[C@H]1OC2=O [BERGENIN] | 23.1% | 0.38 | 36% | – | – | – |
| COC(=O)/C=C/C(C)=C\C=C\C(C)=C\C=C\C=C(C)\C=C\C=C(C)\C=C\C(=O)O [BIXIN] | 34.2% | 0.60 | 49.3% | – | – | – |
| COc1c(OC)c2occc2c2oc(=O)ccc12 [PIMPINELLIN] | 13.3% | 0.21 | 43.6% | – | – | – |
| COc1ccc2cc1Oc1ccc(cc1)C[C@H]1c3cc(c(OC)cc3CCN1C)Oc1c(OC)c(OC)cc3c1[C@H](C2)N(C)CC3 [TETRANDRINE] | -2.5% | -0.04 | 80.4% | – | – | 1% |
| CC12CCC(CC1)C(C)(C)O2 [EUCALYPTOL] | -16.4% | -0.22 | 16.2% | – | – | – |
| C[C@@H]1CC[C@@]2(OC1)O[C@H]1C[C@H]3[C@@H]4CC=C5C[C@@H](O)CC[C@]5(C)[C@H]4CC[C@]3(C)[C@H]1[C@@H]2C [DIOSGENIN] | – | – | 14.7% | 19.7% | 0.32 | – |
| COc1c(CC(=O)c2cc3c(cc2O)OC(C)(C)C(O)C3)ccc2c1C=CC(C)(C)O2 (stereo not shown) [DIHYDROMUNDULETONE] | -7.4% | -0.10 | 4.35% | – | – | – |
| O=C1C[C@@H](c2ccc(O)cc2)Oc2cc(O)cc(O)c21 [NARINGENIN] | -17.3% | – | 47.6% | – | -0.23 | – |
| CC(C)C1=CC2=CC[C@@H]3[C@](C)(CCC[C@@]3(C)C(=O)O)[C@H]2CC1 [ABIETIC ACID] | – | – | -58.3% | -30.7% | -0.39 | – |
| C=C(C)[C@H]1Cc2c(ccc3c2O[C@@H]2COc4cc(OC)c(OC)cc4[C@@H]2C3=O)O1 [ROTENONE] | – | – | 74.7% | 57.8% | 1.24 | 76% |
| CCCCCCCCCCCCCCCCCCOCC(O)CO (stereo not shown) [BATYL ALCOHOL] | -48% | -0.57 | 41.3% | – | – | – |
| CC(=O)O[C@]1(C)CC[C@@]23C[C@@H]1C(C)(C)[C@@H]2CC[C@H]3C [CEDRYL ACETATE] | – | – | 9.38% | 3.6% | 0.05 | – |
| OC[C@H]1O[C@@H](Oc2cc(O)cc(/C=C/c3ccc(O)cc3)c2)[C@H](O)[C@@H](O)[C@@H]1O [PICEID] | -28.7% | -0.36 | 4.1% | – | – | – |
| COc1c2ccoc2cc2oc(C)cc(=O)c12 [VISNAGIN] | -20.7% | -0.27 | 15.1% | – | – | – |
| COc1cc(O)cc(OC)c1OC [ANTIAROL] | 6.9% | 0.10 | 8.48% | – | – | – |
| COc1cc2c(cc1OC)-c1cc3ccc(OC)c(OC)c3c[n+]1CC2 [PALMATINE CHLORIDE] | -6.1% | -0.09 | 9.29% | – | – | – |
| O=c1c(-c2ccc(O)cc2)coc2cc(O)ccc12 [DAIDZEIN] | 0.7% | 0.01 | 39.2% | – | – | – |

| Structure (SMILES) | cytotoxicity at 41 h, 10 µM (in vitro) | Hs18S ΔCT (HCT-8 host cells (Hs18S); human, 41 h, 10 μM) | inhibition at 10 µM (Cryptosporidium parvum) | cytotoxicity at 10 µM (in vitro) | Hs18S ΔCT (HCT-8 host cells (Hs18S); [1]) | inhibition at 3.3 µM (Cryptosporidium parvum) |
| --- | --- | --- | --- | --- | --- | --- |
| O=c1c(O)c(-c2ccc(O)c(O)c2)oc2c(O)c(O)cc(O)c12 [GOSSYPETIN] | – | – | -17.5% | -2.6% | -0.04 | – |
| COc1cc2c(cc1O)C[C@H]1c3c(cc(O)c(OC)c3-2)CCN1C [BOLDINE] | – | – | -28.6% | -26.4% | -0.34 | – |
| O=c1c(O)cccc2cc(O)c(O)c(O)c12 [PURPUROGALLIN] | -0.7% | -0.01 | -12.6% | – | – | – |
| COC(=O)CC1C(C)(C)C(OC(C)=O)[C@@H]2[C@@H](OC(C)=O)[C@]34O[C@@]2(O)[C@]1(C)C3CC[C@]1(C)C4=CC(=O)O[C@H]1c1ccoc1 (stereo partly shown) [XYLOCARPUS A] | -39.2% | -0.48 | -11.9% | – | – | – |
| COc1ccc2c3c1O[C@H]1C[C@@H](O)C=C[C@@]31CCN(C)C2 [GALANTAMINE] | – | – | 2.66% | -26.2% | -0.34 | – |
| COc1cc(OC)c2c(=O)c(-c3ccc4c(c3)OCO4)coc2c1 [DERRUSTONE] | 23.9% | 0.39 | 61.3% | – | – | -77% |
| C=CC(C1=CC(=O)C(OC)=CC1=O)c1ccc(O)cc1 (stereo not shown) [DALBERGIONE, 4-METHOXY-4'-HYDROXY-] | 6.1% | 0.09 | 30.3% | – | – | – |
| c1cncc(C2=NCCC2)c1 [MYOSMINE] | – | – | -17.6% | 4.5% | 0.07 | – |
| COc1ccc2c(C)cc(=O)oc2c1 [HYMECROMONE METHYL ETHER] | 16.6% | 0.26 | -1.44% | – | – | – |
| N[C@@H](CCC(=O)N[C@@H](CS)C(=O)NCC(=O)O)C(=O)O [GLUTATHIONE] | -32% | -0.40 | 68.1% | – | – | -20% |
| OCc1ccccc1O[C@@H]1O[C@H](CO)[C@@H](O)[C@H](O)[C@H]1O [SALICIN] | 32.9% | 0.58 | 37.1% | – | – | – |
| COc1ccc(-c2cc(=O)c3c(O)c(OC)c(OC)c(OC)c3o2)cc1 [GARDENIN B] | 16% | 0.25 | 53.6% | – | – | – |
| O=C(O)c1cc(O)c2c(c1)[C@H]([C@H]1c3cc(C(=O)O)cc(O)c3C(=O)c3c(O[C@@H]4O[C@H](CO)[C@@H](O)[C@H](O)[C@H]4O)cccc31)c1cccc(O[C@@H]3O[C@H](CO)[C@@H](O)[C@H](O)[C@H]3O)c1C2=O [SENNOSIDE A] | – | – | -4.71% | -6.1% | -0.08 | – |
| CC1(C)C[C@@H]2C(=O)CC[C@H]3O[C@]3(C)CC[C@H]21 [KOBUSONE] | 0.5% | 0.01 | -24.4% | – | – | – |
| O=C(/C=C/C=C/c1ccc2c(c1)OCO2)N1CCCCC1 [PIPERINE] | – | – | -12.1% | 2.1% | 0.03 | – |
| Oc1cc(O)c2c(c1)O[C@H](c1ccc(O)c(O)c1)[C@H](O)C2 [EPICATECHIN] | -6.3% | -0.09 | -0.62% | – | – | – |
| CC(=O)c1ccc[nH]1 [2-ACETYLPYRROLE] | -34.6% | -0.43 | 22.6% | – | – | – |
| COc1cc(CNC(=O)CCCC/C=C/C(C)C)ccc1O [CAPSAICIN] | – | – | -54.2% | 0.1% | 0.00 | – |
| COc1ccc(-c2coc3cc(O)ccc3c2=O)c(OC)c1 [2'-METHOXYFORMONETIN] | 11.5% | 0.18 | 12.9% | – | – | – |
| C[C@]12CC[C@H](O)CC1=CC[C@@H]1[C@@H]2CC[C@]2(C)C(=O)CC[C@@H]12 [DEHYDROEPIANDROSTERONE] | – | – | 7.05% | -1.9% | -0.03 | – |
| O=c1cc(-c2ccccc2)oc2c(O)c(O)ccc12 [7,8-DIHYDROXYFLAVONE] | – | – | 49.3% | 28.8% | 0.49 | – |
